Measurements published in US3974268A, “Bone-seeking technetium-99m imidodiphosphonate complex” (priority 1975, dated 1976).
Like-named read-outs stand apart in the source and are kept apart here.

Columns and labels:
[1] = cited from earlier work
[2] = Acute toxicity (LD 50/30) by serial injection of graduated doses; format: in vivo; conditions: mice and rabbits
Method: A toxicological study was conducted in both mice and rabbits by serial injection of graduated doses and the acute toxicity of imidodiphosphonate (LD 50/30) was determined to be 45-50 mg imidodiphosphonic acid per kilogram body weight.

[3] = 2 hours, rabbits, derived from Subramanian et al references

O=P(O)(O)OP(=O)(O)O [Pyro Phosphate]
99mTc/85Sr ratio calculated from specific concentrations, Average Bone ([1]; rabbit, in vivo): 0.812
99mTc/85Sr ratio calculated from specific concentrations, Blood ([1]; rabbit, in vivo): 0.703
99mTc/85Sr ratio calculated from specific concentrations, Femur ([1]; rabbit, in vivo): 0.710
99mTc/85Sr ratio calculated from specific concentrations, Kidney ([1]; rabbit, in vivo): 2.81
99mTc/85Sr ratio calculated from specific concentrations, Liver ([1]; rabbit, in vivo): 0.779
99mTc/85Sr ratio calculated from specific concentrations, Marrow ([1]; rabbit, in vivo): 0.726
99mTc/85Sr ratio calculated from specific concentrations, Muscle ([1]; rabbit, in vivo): 0.365
99mTc/85Sr ratio calculated from specific concentrations, Pelvis ([1]; rabbit, in vivo): 0.918
99mTc/85Sr ratio calculated from specific concentrations, Spine ([1]; rabbit, in vivo): 0.827
99mTc/85Sr ratio calculated from specific concentrations, Tibia ([1]; rabbit, in vivo): 0.694

Amino Ethylne Diphosphonate [AEDP]
99mTc/85Sr ratio calculated from specific concentrations, Average Bone [1, 3]: 0.648
99mTc/85Sr ratio calculated from specific concentrations, Blood [1, 3]: 0.416
99mTc/85Sr ratio calculated from specific concentrations, Femur [1, 3]: 0.641
99mTc/85Sr ratio calculated from specific concentrations, Kidney [1, 3]: 3.71
99mTc/85Sr ratio calculated from specific concentrations, Liver [1, 3]: 0.766
99mTc/85Sr ratio calculated from specific concentrations, Marrow [1, 3]: 0.852
99mTc/85Sr ratio calculated from specific concentrations, Muscle [1, 3]: 0.135
99mTc/85Sr ratio calculated from specific concentrations, Pelvis [1, 3]: 0.693
99mTc/85Sr ratio calculated from specific concentrations, Spine [1, 3]: 0.618
99mTc/85Sr ratio calculated from specific concentrations, Tibia [1, 3]: 0.641

Ethylene Hydroxy Diphosphonate [EHDP]
99mTc/85Sr ratio calculated from specific concentrations, Average Bone [1, 3]: 0.832
99mTc/85Sr ratio calculated from specific concentrations, Blood [1, 3]: 0.362
99mTc/85Sr ratio calculated from specific concentrations, Femur [1, 3]: 0.796
99mTc/85Sr ratio calculated from specific concentrations, Kidney [1, 3]: 3.53
99mTc/85Sr ratio calculated from specific concentrations, Liver [1, 3]: 0.954
99mTc/85Sr ratio calculated from specific concentrations, Marrow [1, 3]: 0.814
99mTc/85Sr ratio calculated from specific concentrations, Muscle [1, 3]: 0.172
99mTc/85Sr ratio calculated from specific concentrations, Pelvis [1, 3]: 0.913
99mTc/85Sr ratio calculated from specific concentrations, Spine [1, 3]: 0.801
99mTc/85Sr ratio calculated from specific concentrations, Tibia [1, 3]: 0.798

O=P(O)(O)CN(CCN(CP(=O)(O)O)CP(=O)(O)O)CCN(CP(=O)(O)O)CP(=O)(O)O (99mTc complex, metal not drawn) [DTPMP, Diethylene Triamino Penta (Methylene Phosphonate)]
99mTc/85Sr ratio calculated from specific concentrations, Average Bone ([1]; rabbit, in vivo): 0.467
99mTc/85Sr ratio calculated from specific concentrations, Blood ([1]; rabbit, in vivo): 0.461
99mTc/85Sr ratio calculated from specific concentrations, Femur ([1]; rabbit, in vivo): 0.419
99mTc/85Sr ratio calculated from specific concentrations, Kidney ([1]; rabbit, in vivo): 3.82
99mTc/85Sr ratio calculated from specific concentrations, Liver ([1]; rabbit, in vivo): 0.544
99mTc/85Sr ratio calculated from specific concentrations, Marrow ([1]; rabbit, in vivo): 0.547
99mTc/85Sr ratio calculated from specific concentrations, Muscle ([1]; rabbit, in vivo): 0.221
99mTc/85Sr ratio calculated from specific concentrations, Pelvis ([1]; rabbit, in vivo): 0.627
99mTc/85Sr ratio calculated from specific concentrations, Spine ([1]; rabbit, in vivo): 0.415
99mTc/85Sr ratio calculated from specific concentrations, Tibia ([1]; rabbit, in vivo): 0.384

Poly Phosphate
99mTc/85Sr ratio calculated from specific concentrations, Average Bone [1, 3]: 0.87
99mTc/85Sr ratio calculated from specific concentrations, Blood [1, 3]: 1.48
99mTc/85Sr ratio calculated from specific concentrations, Femur [1, 3]: 0.826
99mTc/85Sr ratio calculated from specific concentrations, Kidney [1, 3]: 9.46
99mTc/85Sr ratio calculated from specific concentrations, Liver [1, 3]: 2.61
99mTc/85Sr ratio calculated from specific concentrations, Marrow [1, 3]: 2.95
99mTc/85Sr ratio calculated from specific concentrations, Muscle [1, 3]: 0.623
99mTc/85Sr ratio calculated from specific concentrations, Pelvis [1, 3]: 1.01
99mTc/85Sr ratio calculated from specific concentrations, Spine [1, 3]: 0.82
99mTc/85Sr ratio calculated from specific concentrations, Tibia [1, 3]: 0.66

O=P(O)(O)CN(CCCCCCN(CP(=O)(O)O)CP(=O)(O)O)CP(=O)(O)O (99mTc complex, metal not drawn) [HMDTMP, Hexamethylene Diamino Tetra (Methylene Phosphonate)]
99mTc/85Sr ratio calculated from specific concentrations, Average Bone [1, 3]: 0.456
99mTc/85Sr ratio calculated from specific concentrations, Blood [1, 3]: 0.703
99mTc/85Sr ratio calculated from specific concentrations, Femur [1, 3]: 0.434
99mTc/85Sr ratio calculated from specific concentrations, Kidney [1, 3]: 7.06
99mTc/85Sr ratio calculated from specific concentrations, Liver [1, 3]: 0.855
99mTc/85Sr ratio calculated from specific concentrations, Marrow [1, 3]: 0.713
99mTc/85Sr ratio calculated from specific concentrations, Muscle [1, 3]: 0.407
99mTc/85Sr ratio calculated from specific concentrations, Pelvis [1, 3]: 0.516
99mTc/85Sr ratio calculated from specific concentrations, Spine [1, 3]: 0.428
99mTc/85Sr ratio calculated from specific concentrations, Tibia [1, 3]: 0.437

imidodiphosphonic acid [imidodiphosphonate]
acute toxicity (LD 50/30) [2]: 45-50 mg imidodiphosphonic acid per kilogram body weight
